{"source": "patent US7749709B2", "about": "“SOCS-1 gene methylation in cancer” (The Johns Hopkins University School of Medicine, priority 2001, dated 2010)", "key": {"SOCS-1 gene expression": {"system": "SOCS-1 gene expression", "assay": "Semi-quantitative RT-PCR of SOCS-1 expression in MM cell lines", "format": "cell-based, human", "settings": "1 μM for 96 hr", "protocol": "(§1) For gene expression studies, U266 and XG1 cells were incubated in complete culture medium with a final concentration of 1.0 μM 5-azacytidine (Sigma). After 4 days, drug-treated and untreated cells were harvested and subjected to RNA extraction. In order to assess the sensitivity to AG490, cell lines K562, U266 and XG1 were incubated with or without a final concentration of 50 μM AG490 for 4 days prior to analysis. For STAT3 phosphorylation analysis, cell lines U266 and XG1 were initially starved for 16 hr in culture medium supplemented with only 1% FCS and no cytokine. Cells were then washed in cold PBS and resuspended in their appropriate complete medium with or without 50 μM AG490 and samples were harvested for protein analysis after 1 hr and 24 hr.\nTotal RNA was isolated using a commercially available kit (Qiagen) according to the manufacturer's instructions. Approximately 3 μg RNA per sample were reverse transcribed with SuperScript™ reverse transcriptase (Invitrogen). For PCR, 1 μl of the cDNA preparation was amplified using the following SOCS-1 primers: […]\nReactions were hot-started at 95° C. for 5 min and held at 80° C. before addition of 1.25 U of Taq polymerase (Invitrogen Corp.). […]"}, "[1]": {"system": "patients with AML and myelodysplastic syndrome", "settings": "cited from earlier work"}, "STAT3 [2]": {"system": "STAT3", "assay": "Western blot analysis of STAT3 tyrosine phosphorylation in HCC cell lines treated with AG490", "format": "cell-based, human", "settings": "25 μM AG490 for 3 hr or 24 hr", "protocol": "Cells at approximately 70% confluence were harvested and lysed on ice in a buffer containing 20 mM Tris (pH 8.0), 1% NONIDET P-40 detergent, 0.1% SDS, 150 mM NaCl, 50 mM NaF, 1 mM Na3VO4, 10 μg/ml leupeptin, 10 μg/ml aprotinin, 1 μg/ml pepstatin, and 1 mM phenylmethylsulfonyl fluoride. Following incubation for 30 min on ice, the lysates were cleared of debris by centrifugation at 15,000×g for 30 min. Eight hundred μg of protein lysates were incubated with 5 μg anti-JAK2 antibody (Upstate Biotechnology; Waltham Mass.) for 1 hr on ice. Thirty μl protein A+G (Oncogene Research Products; Boston Mass.) was added to the lysates and incubated for 1 hr at 4° C. with rotation.\nImmune complexes were recovered by centrifugation, washed 5 times with the lysis buffer, then boiled for 5 min in SDS-PAGE sample buffer. The samples were resolved by SDS-PAGE, and electroblotted onto a nitrocellulose membrane. The blot was blocked with 5% skim milk in PBS for 1 hr at room temperature (RT), then incubated with 1 μg/ml of anti-phosphotyrosine antibody (4G10; Upstate biotechnology) over night at 4° C.\nAfter several washes, a 1:5000 dilution of anti-mouse horseradish peroxidase-conjugated secondary antibody (Amersham Pharmacia Biotech) was added and incubated for 1 hr at RT. After several washes, the immunoreactive bands were visualized by an enhanced chemiluminescence substrate (Amersham Pharmacia Biotech) and exposed to HYPERFILM film (Amersham Pharmacia Biotech). The blot was stripped with a buffer composed of 62.5 mM Tris (pH 6.8), 2% SDS and 100 mM θ-mercaptoethanol at 50° C. for 30 min, washed, blocked with 5% milk in PBS, then re-probed with the anti-JAK2 antibody (Upstate Biotechnology).\nTo analyze inhibition of STAT3 by AG490, cells were treated with 25 μM AG490 for 3 hr or 24 hr. Eighty μg total protein samples from drug treated and untreated cells were separated by SDS-PAGE, and analyzed by western blot analysis. Anti-phospho-STAT3 antibody (New England Biolabs) was used to detect tyrosine phosphorylation of STAT3 according to the conditions recommended by the manufacturer. […]"}, "[3]": {"system": "HCC cells exhibiting methylation silenced SOCS-1 gene expression", "assay": "Colony formation assay with AG490", "format": "cell-based, human", "settings": "5 μM AG490 for 3 weeks", "protocol": "For AG490 treatment, 1×10^4 cells were plated in 100 mm tissue culture dishes, and grown in complete medium in the absence or presence of 5 μM AG490 for 3 weeks. In some experiments, cells were treated with 25 μM AG490 for 3 hr or 24 hr."}, "normal liver cells": {"system": "normal liver cells", "assay": "Effect of AG490 on normal liver cells", "format": "cell-based"}, "K562 cells": {"system": "K562 cells", "assay": "Flow cytometric analysis of apoptosis (annexin V binding, PI counterstaining)", "format": "cell-based, human", "settings": "50 μM AG490, 96 hr; no SOCS-1 methylation", "protocol": "as §1\n(§2) Apoptosis was assessed by annexin V binding and counterstaining with propidium iodide (PI) using a commercially available kit (Pharmingen) according to the manufacturer's instructions. Fluorescence analysis was performed on a BD LSR flow cytometer (Becton Dickinson)."}, "U266 cells": {"system": "U266 cells", "assay": "Flow cytometric analysis of apoptosis (annexin V binding, PI counterstaining)", "format": "cell-based, human", "settings": "50 μM AG490, 96 hr; SOCS-1 hypermethylated", "protocol": "as §1, §2"}, "XG1 cells": {"system": "XG1 cells", "assay": "Flow cytometric analysis of apoptosis (annexin V binding, PI counterstaining)", "format": "cell-based, human", "settings": "50 μM AG490, 96 hr; SOCS-1 hypermethylated", "protocol": "as §1, §2"}, "STAT3 [4]": {"system": "STAT3", "assay": "Western blot analysis of STAT3 phosphorylation in MM cell lines", "format": "cell-based, human", "settings": "50 μM AG490, 1 hr and 24 hr", "protocol": "as §1\nCell lysis and western blot analysis for STAT3 phosphorylation were performed as described in Example 1 (see, also, Yoshikawa et al., supra, 2001)."}, "HL60": {"system": "HL60", "assay": "Flow cytometric analysis of apoptosis in AML cell line", "format": "cell-based, human", "settings": "50 μM AG490, 96 hr; SOCS-1 not methylated", "protocol": "(§3) HL60 cells were obtained from the American Type Culture Collection and KG1a cells from the German Collection of Microorganisms and Cell Cultures. Both cell lines were routinely cultured in IMDM (Invitrogen Corp.) with 20% FCS (Gemini Bio-Products). In order to assess the sensitivity to AG490, HL60 and KG1a cells were incubated with or without a final concentration of 50 μM AG490 (Sigma) for 96 hr prior to analysis.\n(§4) The percentage of apoptotic cells was determined by annexin V-binding and counterstaining with propidium iodide (PI), and fluorescence analysis was performed as described in Example 2."}, "KG1a": {"system": "KG1a", "assay": "Flow cytometric analysis of apoptosis in AML cell line", "format": "cell-based, human", "settings": "50 μM AG490, 96 hr; SOCS-1 CpG island methylated", "protocol": "as §3, §4"}, "STAT1": {"system": "STAT1", "assay": "Western blot analysis of STAT tyrosine phosphorylation in SOCS-1 methylated leukemia cells", "format": "cell-based, human", "settings": "cell line with SOCS-1 methylation, following treatment with AG490", "protocol": "(§5) Western blot analysis was performed as described in Example 1. Blots were stained using anti-phospho-STAT1, anti-phospho-STAT3 or anti-phospho-STAT5 antibody (New England Biolabs) to detect tyrosine phosphorylation of STAT protein. After removing the antibody, the blot was analyzed using anti-STAT1, anti-STAT3 or anti-STAT5 antibody, respectively (BD Transduction Laboratories)."}, "STAT3 [5]": {"system": "STAT3", "assay": "Western blot analysis of STAT tyrosine phosphorylation in SOCS-1 methylated leukemia cells", "format": "cell-based, human", "settings": "cell line with SOCS-1 methylation, following treatment with AG490", "protocol": "as §5"}, "STAT5": {"system": "STAT5", "assay": "Western blot analysis of STAT tyrosine phosphorylation in SOCS-1 methylated leukemia cells", "format": "cell-based, human", "settings": "cell line with SOCS-1 methylation, following treatment with AG490", "protocol": "as §5"}, "[6]": {"system": "normal haematopoietic progenitor cells", "settings": "at concentrations similar to those used in the present studies; cited from earlier work"}, "[7]": {"system": "B cell leukemia cells, in which JAK2 was constitutively activated", "settings": "cited from earlier work"}, "STAT3 [8]": {"system": "STAT3", "settings": "MM cell line XG2; cited from earlier work"}, "myeloma cells": {"system": "myeloma cells", "settings": "cited from earlier work"}, "leukemic Sezary cells": {"system": "leukemic Sezary cells", "settings": "cited from earlier work"}, "ALL": {"system": "ALL", "settings": "cited from earlier work"}}, "note": "Entries after “also recorded” stand apart in the source; their conditions may differ. Like-named read-outs stand apart in the source and are kept apart here."}
{"smiles": "Nc1ncn([C@H]2C[C@H](O)[C@@H](CO)O2)c(=O)n1", "note": "[5-aza-2′-deoxycytidine]", "values": [{"measurement": "SOCS-1 gene expression", "setting": "SOCS-1 gene expression; U266 cells", "value": "reactivation of SOCS-1 gene expression"}, {"measurement": "SOCS-1 gene expression", "setting": "SOCS-1 gene expression; XG1 cells", "value": "reactivation of SOCS-1 gene expression"}, {"measurement": "clinical efficacy", "setting": "[1]", "value": "clinically effective"}]}
{"smiles": "N#C/C(=C/c1ccc(O)c(O)c1)C(=O)NCc1ccccc1", "note": "[AG490]", "values": [{"measurement": "STAT3 phosphorylation", "setting": "STAT3 [2]; HuH-1 cells (SOCS-1 inactivated, JAK2 activated)", "value": "time dependent reduction in STAT3 phosphorylation"}, {"measurement": "STAT3 phosphorylation", "setting": "STAT3 [2]; SNU-387 cells (SOCS-1 inactivated, JAK2 activated)", "value": "time dependent reduction in STAT3 phosphorylation"}, {"measurement": "STAT3 phosphorylation", "setting": "STAT3 [2]; SOCS-1 expressing SNU-182 cells", "value": "but not in the SOCS-1 expressing SNU-182 cells"}, {"measurement": "growth suppression (number of colonies)", "setting": "[3]", "value": "effectively suppressed the growth"}, {"measurement": "effect on normal liver cells", "setting": "normal liver cells", "value": "no effect"}, {"measurement": "apoptosis induction", "setting": "K562 cells", "value": "only a small effect"}, {"measurement": "apoptosis induction", "setting": "U266 cells", "value": "induced apoptosis"}, {"measurement": "apoptosis induction", "setting": "XG1 cells", "value": "induced apoptosis"}, {"measurement": "STAT3 phosphorylation", "setting": "STAT3 [4]; U266 cells", "value": "inhibited STAT3 phosphorylation"}, {"measurement": "STAT3 phosphorylation", "setting": "STAT3 [4]; XG1 cells", "value": "only minor effects"}, {"measurement": "apoptosis induction", "setting": "HL60", "value": "no effect; also recorded: only weak induction of apoptosis"}, {"measurement": "apoptosis induction", "setting": "KG1a", "value": "induced apoptosis"}, {"measurement": "tyrosine phosphorylation of STAT1", "setting": "STAT1", "value": "decreased"}, {"measurement": "tyrosine phosphorylation of STAT3", "setting": "STAT3 [5]", "value": "decreased"}, {"measurement": "tyrosine phosphorylation of STAT5", "setting": "STAT5", "value": "no change"}, {"measurement": "growth of normal haematopoietic progenitor cells", "setting": "[6]", "value": "does not suppress the growth"}, {"measurement": "growth of B cell leukemia cells", "setting": "[7]", "value": "suppress growth"}, {"measurement": "STAT3 phosphorylation", "setting": "STAT3 [8]", "value": "inhibition of STAT3 phosphorylation"}, {"measurement": "apoptosis induction", "setting": "myeloma cells", "value": "induces apoptosis"}, {"measurement": "apoptosis induction", "setting": "leukemic Sezary cells", "value": "induces apoptosis"}, {"measurement": "effectiveness in the treatment of ALL", "setting": "ALL", "value": "effectiveness"}]}
